Structures can show the parent of a compound that is named as a salt. Where two headings read alike, the source gives them in different places. Values belong to the compound of their own block, whether it stands above or below them.
Target: full-length human RORγt (Homo sapiens (Human), UniProt P51449)
Assay: RORγt (full-length human) reporter assay, conditions A or B, HEK293T cells
Format: cell-based
Details: for inhibition at 2 µM: 2 μM compound concentration
Method: RORγt (Full-Length Human) Reporter Assay:
(§1) HEK293T cells were plated at 35,000 per well in 96-well plate in medium of DMEM with 10% FBS. […] After overnight (16 to 20 hours) incubation, media were removed and cells were lysed with 50 L Glo Lysis Buffer (Promega) for 10-15 minutes followed by 10 minute incubation with 50 μL Dual Glo reagent (Promega) at room temperature. Firefly luciferase luminescence was measured using a BMG Pherastar plate reader. To each well, 50 μL Stop and Glo reagent was added and incubated for 10 minutes at room temperature. Renilla luminescence was measured using a BMG Pherastar plate reader. To calculate the effect of compounds on RORγt activity, firefly values were normalized against values of DMSO only and values of reference compound at saturating concentration, then further normalized against Renilla signals. IC50s were generated by plotting final Renilla normalized data against compound concentration and percent inhibition was calculated against DMSO control.
as §1, with “at 8750 cells” for “at 35,000”, “in 384-well” for “in 96-well”, “with 20” for “with 50”, “well, 20” for “well, 50”

[1] = HEK-293T, read-out: RORγt (FL) Reporter Assay A or B, % inhibition
[2] = HEK-293T, 3 μM compound concentration (footnote *), read-out: RORγt (FL) Reporter Assay A or B, % inhibition

full-length human RORγt, sequence (P51449 other isoform, or with tags, fused parts or gaps): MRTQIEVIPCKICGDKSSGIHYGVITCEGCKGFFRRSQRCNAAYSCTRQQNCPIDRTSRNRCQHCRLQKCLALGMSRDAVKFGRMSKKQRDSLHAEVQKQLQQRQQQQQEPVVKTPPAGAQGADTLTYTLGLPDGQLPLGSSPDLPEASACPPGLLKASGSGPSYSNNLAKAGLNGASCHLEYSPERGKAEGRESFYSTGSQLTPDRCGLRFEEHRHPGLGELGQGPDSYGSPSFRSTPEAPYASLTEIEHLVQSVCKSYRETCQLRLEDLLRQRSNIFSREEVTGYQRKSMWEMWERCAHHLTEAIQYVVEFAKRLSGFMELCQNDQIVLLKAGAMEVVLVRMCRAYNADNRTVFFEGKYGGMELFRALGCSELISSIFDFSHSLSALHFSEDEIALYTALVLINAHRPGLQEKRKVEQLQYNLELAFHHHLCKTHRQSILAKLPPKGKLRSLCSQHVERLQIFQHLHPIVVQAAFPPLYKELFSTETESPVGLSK

SMILES: CCn1nc(C(=O)NC[C@]2(N)CC[C@H](S(C)(=O)=O)CC2)c(Cl)c1-c1ccc(CC(C)(C)C(F)(F)F)cc1OC(F)F [Example 20, N-(((1r*,4r*)-1-Amino-4-(methylsulfonyl)cyclohexyl)methyl)-4-chloro-5-(2-(difluoromethoxy)-4-(3,3,3-trifluoro-2,2-dimethylpropyl)phenyl)-1-ethyl-1H-pyrazole-3-carboxamide 2,2,2-trifluoroacetic Acid Salt]
inhibition at 3 µM [2]: 15%

SMILES: CCn1nc(C(=O)NC[C@]2(O)CC[C@@H](S(C)(=O)=O)CC2)c(Cl)c1-c1ccc(C[C@@H](C)C(F)(F)F)cc1OC [Example 36, 4-Chloro-1-ethyl-N-(((1s,4S)-1-hydroxy-4-(methylsulfonyl)cyclohexyl)methyl)-5-(2-methoxy-4-((R)-3,3,3-trifluoro-2-methylpropyl)phenyl)-1H-pyrazole-3-carboxamide]
inhibition at 2 µM [1]: 101%

SMILES: CCn1nc(C(=O)NC[C@]2(O)CC[C@@H](S(C)(=O)=O)CC2)c(Cl)c1-c1ccc(CC(C)(C)C(F)(F)F)cc1OC [Example 45, 4-Chloro-1-ethyl-N-(((1s,4s)-1-hydroxy-4-(methylsulfonyl)cyclohexyl)methyl)-5-(2-methoxy-4-(3,3,3-trifluoro-2,2-dimethylpropyl)phenyl)-1H-pyrazole-3-carboxamide]
inhibition at 2 µM [1]: 88%

SMILES: CCn1nc(C(=O)NC[C@]2(O)CC[C@@H](S(C)(=O)=O)CC2)c(Cl)c1-c1ccc(C(C)(O)CCC(F)(F)F)cc1OC(F)F (stereo partly drawn) [Example 101, 4-Chloro-5-(2-(difluoromethoxy)-4-(5,5,5-trifluoro-2-hydroxypentan-2-yl)phenyl)-1-ethyl-N-(((1s,4s)-1-hydroxy-4-(methylsulfonyl)cyclohexyl)methyl)-1H-pyrazole-3-carboxamide]
inhibition at 3 µM [2]: 115%

SMILES: CCn1nc(C(=O)NC[C@]2(O)CC[C@@H](S(C)(=O)=O)CC2)c(Cl)c1-c1ccc(C(O)C(C)(C)C(F)(F)F)cc1OC(F)F (stereo partly drawn) [Example 106, 4-Chloro-5-(2-(difluoromethoxy)-4-(3,3,3-trifluoro-1-hydroxy-2,2-dimethylpropyl)phenyl)-1-ethyl-N-(((1s,4s)-1-hydroxy-4-(methylsulfonyl)cyclohexyl)methyl)-1H-pyrazole-3-carboxamide]
inhibition at 1 µM (HEK-293T, 1 μM compound concentration (footnote ***), read-out: RORγt (FL) Reporter Assay A or B, % inhibition): 115%

Results, then the compound that gave them:

inhibition at 2 µM [1]: 66%
SMILES: CCn1nc(C(=O)NC[C@H]2CC[C@H](S(C)(=O)=O)CC2)c(Cl)c1-c1ccc(OCC2CC2(F)F)cc1OC (single isomer, unassigned) [Example 211, 4-Chloro-5-(4-(((R*)-2,2-difluorocyclopropyl)methoxy)-2-methoxyphenyl)-1-ethyl-N-(((1r,4R)-4-(methylsulfonyl)cyclohexyl)methyl)-1H-pyrazole-3-carboxamide]

inhibition at 3 µM [1]: 88%
SMILES: CCn1nc(C(=O)NC[C@]2(O)CC[C@@H](S(C)(=O)=O)CC2)c(Cl)c1-c1ccc(C(O)C2(C(F)(F)F)CC2)cc1OC(F)F (stereo partly drawn) [Example 109, 4-Chloro-5-(2-(difluoromethoxy)-4-(hydroxy(1-(trifluoromethyl)cyclopropyl)methyl)phenyl)-1-ethyl-N-(((1s,4s)-1-hydroxy-4-(methylsulfonyl)cyclohexyl)methyl)-1H-pyrazole-3-carboxamide]

inhibition at 2 µM [1]: 103%
IC50 (RORγt (FL) Reporter Assay A or B, IC50, HEK293T cells): 2.4 nM
SMILES: CCOC(=O)[C@]1(CNC(=O)c2nn(CC)c(-c3ccc(CC(C)(C)C(F)(F)F)cc3OC(F)F)c2Cl)CC[C@H](S(C)(=O)=O)CC1 [Example 118, Ethyl (1s*,4s*)-1-((4-chloro-5-(2-(difluoromethoxy)-4-(3,3,3-trifluoro-2,2-dimethylpropyl)phenyl)-1-ethyl-1H-pyrazole-3-carboxamido)methyl)-4-(methylsulfonyl)cyclohexane-1-carboxylate]

— patent publication US10975037B2 (priority 2018, dated 2021)
